Measured values as given in patent publication US11617733B2, “Bicyclic compound and use thereof for medical purposes” (ONO PHARMACEUTICAL CO., LTD., priority 2009, dated 2023).

What was measured:
[1] = test system: male rabbit (NewZealandWhite); assay: Aqueous humor protein concentration in rabbit after ocular instillation; assay type: in vivo; conditions: ocular instillation 30 μL, 0.1% (w/v), 0-8 hours
Description: (2-2) Assessment of Ocular Stimulating Property and Aqueous Humor Protein Concentration
To one eye of a male rabbit (NewZealandWhite, 2.0 to 3.0 kg) was ocular-instilled 30 μL of the compound of Example 16 (35), the compound of Example 16 (3) and the compound of Example 16 (25) which had been adjusted to 0.1% (w/v) with a base (containing citrate buffer pH 6.5, 0.5% polysorbate 80, 1% propylene glycol, 0.01% benzalkonium chloride), respectively. Thereafter, an aqueous humor in anterior chamber after 0, 1, 2, 4, 6 and 8 hours from ocular instillation was collected, and a protein concentration in the humor was measured. As a comparative compound, the aforementioned methyl ester of the compound of Example 12 described in Patent Literature 2 (i.e. compound of Example 10 described in Patent Literature 2) (hereinafter, abbreviated as Comparative Compound B in some cases) was used.
Regarding any test compound, a dose until a dissolution limit (150 to 1000 μg/mL) was administered and action of each active body was assessed.

male dog (TOYO Beagle) = assay: Intraocular pressure lowering action in dog after ocular instillation; assay type: in vivo
Description: (2-1) Intraocular Pressure Lowering Action
To one eye of a male dog (TOYO Beagle) which had been sufficiently acclimated in advance was ocular-instilled 30 μL of each test compound (compound of Example 16 (35), compound of Example 16 (3) and compound of Example 16(25)) which had been adjusted with a base (containing citrate buffer pH 6.5, 0.5% polysorbate 80, 1% propylene glycol, 0.01% benzalkonium chloride) to 0.01% (w/v) or 0.001% (w/v), respectively. The other eye was not treated. As a positive control compound, latanoprost which is the known compound was used.
Thereafter, an ocular surface anesthetic (Benoxil eye drops 0.4%, Santen Pharmaceutical Co., Ltd.) was subjected to ocular instillation to locally anesthetize eyes, and an intraocular pressure of each test compound before ocular instillation and after 2, 4, 6, 8, and 24 hours from ocular instillation was measured. An intraocular pressure was measured using a pneumatic applanation flat tonometer (Model 30 Classic, REICHERT). An intraocular pressure lowering rate (%) was calculated by the following equation. Intraocular pressure lowering rate (%)=(intraocular pressure value before ocular instillation−intraocular pressure value at each point)/(intraocular pressure value before ocular instillation)×100 [Mathematic 1]

SMILES	Action on protein concentration in aqueous humor (in words) [1]	Intraocular pressure lowering action compared with positive control latanoprost (in words) (male dog (TOYO Beagle))
CC(C)OC(=O)CCC[C@H]1CC[C@@H]2[C@@H](/C=C/[C@@H](O)COc3cc(F)ccc3F)[C@H](O)C[C@@H]2OC1 [Example 16 (25), 2-Propanyl 4-{(3S, 5aR, 6R, 7R, 8aS)-6-[(1E, 3R)-4-(2,5-difluorophenoxy)-3-hydroxy-1-buten-1-yl]-7-hydroxyoctahydro-2H-cyclopenta[b]oxepin-3-yl}butanoate]	no action of raising a protein concentration in an aqueous humor	stronger intraocular pressure lowering action as compared with latanoprost
CCOC(=O)CCC[C@H]1CC[C@@H]2[C@@H](/C=C/[C@@H](O)COc3ccccc3)[C@H](O)C[C@@H]2OC1 [Example 16 (35), Ethyl 4-{(3S, 5aR, 6R, 7R, 8aS)-7-hydroxy-6-[(1E, 3R)-3-hydroxy-4-phenoxy-1-buten-1-yl]octahydro-2H-cyclopenta[b]oxepin-3-yl}butanoate]	no action of raising a protein concentration in an aqueous humor	stronger intraocular pressure lowering action as compared with latanoprost
